These results are taken from PMC4714855, “Prediction of T Cell Epitopes from Leishmania major Potentially Excreted/Secreted Proteins Inducing Granzyme B Production” (PLoS ONE, 2016).

Assay [1] concerns the target T1, HLA-A*0201 molecules on T2 cells (Homo sapiens, UniProt P04439, D140Y/D185E/D98H/E176V/E277Q/G131W/G231S/I119V/I121R/I166T/I218V/L300P/L318F/N151K/N90K/P208A/P217A/Q86G/Q94H/R138H/R169H/T345S).
T1 construct: endogenous in cells; host or cells: T2 cells
The assay can be described thus: class I HLA stabilization assay on T2 cells (flow cytometry, anti-HLA-A2 antibody). The class given is cell-based. The conditions noted are these: for relative fluorescence intensity (RFI), percentage increase of mean fluorescence above negative controls: T2 cells, β2-microglobulin 10μg/mL, peptide 10μg/mL (Fig 1 legend: 100μg/mL), 16h 37°C, then Brefeldin A 2h; for affinity for HLA-A2 molecule (stabilization on T2 cells), class in words: T2 cell stabilization assay. How it is done:
The affinity of peptides for HLA-A*0201 molecules was evaluated by using the stabilization assay as previously described. Briefly, T2 cells were incubated with human β2-microglobulin at a final concentration of 10μg/mL in the presence or not of peptides at 10μg/mL for 16h at 37°C in 5% CO2. Cells were then incubated with 5μg/mL Brefeldin A (Sigma-Aldrich, St. Louis, MO) for 2h at 37°C. Expression of HLA-A*0201 on T2 cells was then determined by staining with fluorescein isothiocyanate-labelled anti-HLA-A2 antibody (BD Biosciences, San Jose, CA) and analyzed by flow cytometry using FACScan (BD Biosciences, San Jose, CA). Results were expressed in relative fluorescence intensity (RFI) calculated as the percentage increase of the mean fluorescence above that of the negative controls.
The sequence of 33 different clones of potentially ES proteins has been used. Based on computer software predictions, putative class I HLA-restricted T cell epitopes were identified. Twenty proteins were able to generate a total of 78 nonameric peptides that could be loaded by HLA-A*0201 molecule (Table 2). Subsequently, we have evaluated the binding affinity of these peptides to HLA-A*0201 molecules by class I HLA stabilization assay. This assay measures the increase of HLA-A*0201 molecules induced on T2 cells following exposure to exogenous HLA-A*0201 binding peptides, with high affinity peptides inducing HLA-A*0201 up-regulation more strongly than low-affinity peptides. Individual results are shown on Fig 1A. The 78 tested peptides were classified into 3 groups regarding the percentage of RFI.
Fig 1 Binding affinity of LmES peptides to HLA-A*0201 molecules. The affinities of selected peptides were determined by class I HLA stabilization assay. (A) Results for individual peptides. T2 cells were initially incubated with 100μg (final concentration) of each of the peptides/mL for 16h at 37°C, followed by incubation at 37°C for 2h in presence of Brefeldine A. HLA-A2 expression on these cells was analyzed by flow cytometry using the BB7.2 antibody. MHC stabilization efficiency for each peptide was calculated as the percentage increase of the mean fluorescence above that of the negative controls. Results were expressed as relative fluorescence intensity (RFI). (B) Box plot results. ++: RFI ranges from 200 to 300%, +: RFI ranges from 100 to 200%, and -: RFI ranges from 0 to 100%.
(A flow cytometer gives signals particle by particle.)

Assay [2] has as its system PBMCs. The assay can be described thus: Granzyme B production by stimulated PBMCs (ELISA of culture supernatants). The class given is cell-based, human. The conditions noted are these: PBMCs of 3 HLA-A*0201+ and 3 HLA-A*0201- immune (healed ZCL) donors, peptide 20μg/mL, 5 days; 24 peptides tested. On the procedure:
To assess whether the selected peptides could stimulate or not CD8^+ T cells, we have analysed the induction of GrB and IFN-γ by stimulated PBMCs from healed ZCL individuals. PBMCs separated from heparinized blood samples using Ficoll-Hypaque (Sigma-Aldrich, St. Louis, MO) density gradient centrifugation were resuspended in RPMI 1640 medium (Sigma-Aldrich, St. Louis, MO) supplemented with 2mM L-Glutamine (Sigma-Aldrich, St. Louis, MO), 1mM sodium pyruvate (Gibco, Invitrogen, Grand Island, NY), 100U/mL Penicillin (Sigma-Aldrich, St. Louis, MO), 100μg/mL Streptomycin (Sigma-Aldrich, St. Louis, MO), 10mM HEPES (Gibco, Invitrogen, Grand Island, NY), 20μg/mL Gentamicin (Gibco, Invitrogen, Grand Island, NY), 1X non-essential amino acids (Gibco, Invitrogen, Grand Island, NY), 2-mercaptoethanol (Gibco, Invitrogen, Grand Island, NY), and 10% (v/v) heat-inactivated human AB serum (Sigma-Aldrich, St. Louis, MO), [complete medium] at a concentration of 1.0x10^6 cells/mL. Peptide pools were prepared instantly by dilution with phosphate buffered saline and then added to the cell culture at a final concentration of 1μg/mL. In some experiments, peptides were added separately to the culture at a concentration of 20μg/mL. As positive control, PBMCs were stimulated with 10ng/mL of phorbol 12-myristate 13-acetate (PMA) (Sigma-Aldrich, St. Louis, MO) and 50ng/mL Ionomycin (Sigma-Aldrich, St. Louis, MO). All cultures were incubated at 37°C in 5% CO2 for 5 days. Culture supernatants were then harvested and frozen at -80°C until use.
Granzyme B (GrB), IFN-γ, and IL-10 levels in culture supernatants were quantified with an enzyme-linked immunosorbent (ELISA) assay (MABTECH AB, Nacka Strand, Sweden) for the first one and OptEIA set ELISA assay kit (BD Biosciences, San Jose, CA) for the others. The results were expressed as pg/mL based on the standards provided by the kits. Quantification thresholds were fixed to 100pg/mL for GrB, 45pg/mL for IFN-γ, and 20pg/mL for IL-10.
Fig 2 Peptides grouped in pools induced GrB production. (A) PBMCs from 5 HLA-A*0201^+-donors with a history of ZCL in response to stimulation with peptide pools at a final concentration of 1μg/mL per peptide or (B) SLA (10μg/mL) and PMA/Ionomycin (10ng/mL and 50ng/mL, respectively) as positive controls. GrB production was assessed in culture supernatants using ELISA. (C) Rank of the peptide pools. +: mean pool rank, -: median.
Fig 3 GrB induction by the selected peptides. (A) PBMCs from HLA-A*0201^+ (black mark) and HLA-A*0201^- (white mark) -healed ZCL individuals were stimulated with selected peptides separately. The supernatant was collected after 5 days of incubation and assayed for GrB production.
A general note: In an ELISA, binding on a coated surface is turned into a signal by an enzyme label.

Consider “ELLGNLEEV [D6, nonamer … from L. major ES protein Pr 31]”, for which, in assay [1], the “relative fluorescence intensity (RFI), percentage increase of mean fluorescence above negative controls” value is given as over 200%.
Take “FMEVFGMLV [G2, nonamer … from L. major ES protein Pr 78]”: the “GrB induction by individual peptides” value in assay [2] is “highest levels of GrB”. In assay [1], the “affinity for HLA-A2 molecule (stabilization on T2 cells), class in words” value (“affinity for HLA-A2 molecule” below) is given as “high” and the “relative fluorescence intensity (RFI), percentage increase of mean fluorescence above negative controls” value was over 200%.
As to “MLLWTAVAV [E1, nonamer … from L. major ES protein Pr 37]”, the “relative fluorescence intensity (RFI), percentage increase of mean fluorescence above negative controls” value in assay [1] is over 200%.
Consider “MLVQSCTSI [G3, nonamer … from L. major ES protein Pr 78]”, for which, in assay [2], the “GrB induction by individual peptides” value is reported as “highest levels of GrB”. Also, in assay [1], the “affinity for HLA-A2 molecule” value is “high” and the “relative fluorescence intensity (RFI), percentage increase of mean fluorescence above negative controls” value is over 200%.
As for “PLSPATRRL [E6, nonamer … from L. major ES protein Pr 38]”, the “GrB induction by individual peptides” value in assay [2] is reported as “highest levels of GrB”.
For “SLQFSAFLL [G1, nonamer … from L. major ES protein Pr 78]”, the “relative fluorescence intensity (RFI), percentage increase of mean fluorescence above negative controls” value in assay [1] is over 200%.
“TLGVKQMVV [F6, nonamer … from L. major ES protein Pr 74 (elongation factor 1-alpha)]”: the “GrB induction by individual peptides” value in assay [2] is reported as “highest levels of GrB”. Further, in assay [1], the “affinity for HLA-A2 molecule” value was “high” and the “relative fluorescence intensity (RFI), percentage increase of mean fluorescence above negative controls” value was over 200%.
In the case of “VVSVLTHSV [G4, nonamer … from L. major ES protein Pr 78]”, in assay [2], the “GrB induction by individual peptides” value was “highest levels of GrB”. Further, the “affinity for HLA-A2 molecule” value in assay [1] is on record as “intermediate”.
Taken in the same sequence, the figures for “YLRTFPAAL [E2, nonamer … from L. major ES protein Pr 37]” were “highest levels of GrB” and “intermediate”.
